# Measured values published in patent US20080221100A1, “SOLUBLE EPOXIDE HYDROLASE INHIBITORS” (Arete Therapeutics, Inc., priority 2006, published 2008).
# Columns and labels:
# [1] = system: soluble epoxide hydrolase (sEH); assay: Fluorescent assay for mouse and human soluble epoxide hydrolase (CMNPC substrate); assay type: biochemical, mouse or human, not specified
# Text: Fluorescent Assay for Mouse and Human Soluble Epoxide Hydrolase Recombinant mouse sEH (MsEH) and human sEH (HsEH) were produced in a baculovirus expression system as previously reported. Grant et al., J. Biol. Chem., 268:17628-17633 (1993); Beetham et al., Arch. Biochem. Biophys., 305:197-201 (1993). The expressed proteins were purified from cell lysate by affinity chromatography. Wixtrom et al., Anal. Biochem., 169:71-80 (1988). Protein concentration was quantified using the Pierce BCA assay using bovine serum albumin as the calibrating standard. […] They contained no detectable esterase or glutathione transferase activity which can interfere with the assay. The assay was also evaluated with similar results in crude cell lysates or homogenate of tissues. The IC50s for each inhibitor were determined according to the following procedure: Substrate: [drawing 155] […] Jones P. D. et al.; Analytical Biochemistry 2005; 343: pp. 66-75) Solutions: Bis/Tris HCl 25 mM pH 7.0 containing 0.1 mg/mL of BSA (buffer […] at 0.25 mM in DMSO. Mother solution of enzyme in buffer A (Mouse sEH at 6 μg/mL and Human sEH at 5 μg/mL). Inhibitor dissolved in DMSO at the appropriate concentration. Protocol: In a black 96 well plate, fill all the wells with 150 μL of buffer A. Add 2 μL of DMSO in well A2 and A3, and then add 2 μL of inhibitor solution in A1 and A4 through A12. Add 150 μL of buffer A in row A, then mix several time and transfer 150 μL to row B. Repeat this operation up to row H. The 150 μL removed from row H is discarded. Add 20 μL of buffer A in column 1 and 2, then add 20 μL of enzyme solution to column 3 to 12. Incubate the plate for 5 minutes in the plate reader at 30° C. During incubation prepare the working solution of substrate by mixing 3.68 mL of buffer A (4×0.920 mL) with 266 μL (2×133 μL) of substrate solution). At t=0, add 30 μL of working substrate solution with multi-channel pipette labeled “Briggs 303” and start the reading ([S]final: 5 μM). Read with ex: 330 nm (20 nm) and em: 465 nm (20 nm) every 30 second for 10 minutes. The velocities are used to analyze and calculate the IC50s.
% Inhibition ([1]; Conc 200 nM),melting point,% Inhibition ([1]; Conc 2000 nM),% Inhibition ([1]; Conc 50 nM),% Inhibition ([1]; Conc 500 nM),Structure (SMILES)
97%,260 to 261 °C,,,,"CC(C)(C)S(=O)(=O)N1CCC(NC(=O)Nc2ccc(C(F)(F)F)cc2)CC1 [Compound 54, 1-(1-(tert-butylsulfonyl)piperidin-4-yl)-3-(4-(trifluoromethyl)phenyl)urea]"
90%,158 to 160 °C,,,,"O=C(Nc1ccc(C(F)(F)F)cc1)NC1CCN(C(=O)CCO)CC1 [Compound 49, 1-(1-(3-hydroxypropanoyl)piperidin-4-yl)-3-(4-(trifluoromethyl)phenyl)urea]"
93%,184 to 186 °C,,,,"CC(C)(O)CCC(=O)N1CCC(NC(=O)Nc2ccc(C(F)(F)F)cc2)CC1 [Compound 47, 1-(1-(4-hydroxy-4-methylpentanoyl)piperidin-4-yl)-3-(4-(trifluoromethyl)phenyl)urea]"
94%,229 to 230 °C,,,,"CC(C)(C)[S+]([O-])N1CCC(NC(=O)Nc2ccc(C(F)(F)F)cc2)CC1 (stereo not drawn) [Compound 52, 1-(1-(tert-butylsulfinyl)piperidin-4-yl)-3-(4-(trifluoromethyl)phenyl)urea]"
,214 to 215 °C,100%,,,"COCC(=O)N1CCC(NC(=O)Nc2ccc(C(F)(F)F)cc2)CC1 [Compound 51, 1-(1-(2-methoxyacetyl)piperidin-4-yl)-3-(4-(trifluoromethyl)phenyl)urea]"
98%,200 to 205 °C,,,,"O=C(Nc1ccc(C(F)(F)F)cc1)NC1CCN(S(=O)(=O)CCCO)CC1 [Compound 50, 1-(1-(3-hydroxypropylsulfonyl)piperidin-4-yl)-3-(4-(trifluoromethyl)phenyl)urea]"
100%,175 to 182 °C,,,,"O=C(Nc1ccc(C(F)(F)F)cc1)NC1CCN(C(=O)CCCO)CC1 [Compound 53, 1-(1-(4-hydroxybutanoyl)piperidin-4-yl)-3-(4-(trifluoromethyl)phenyl)urea]"
,217 to 219 °C,,92%,,"Cc1nc(C(=O)N2CCC(NC(=O)Nc3ccc(C(F)(F)F)cc3)CC2)c(C)o1 [Compound 39, 1-(1-(2,5-Dimethyloxazole-4-carbonyl)piperidin-4-yl)-3-(4-(trifluoromethyl)phenyl)urea]"

# The next lines start with the compound.
Structure (SMILES),% Inhibition ([1]; Conc 200 nM),melting point,% Inhibition ([1]; Conc 2000 nM),% Inhibition ([1]; Conc 50 nM),% Inhibition ([1]; Conc 500 nM)
"CC(C)(C)OC(=O)C(C)(C)Oc1ccc(C(=O)N2CCC(NC(=O)Nc3ccc(C(F)(F)F)cc3)CC2)cc1 [Compound 38, Tert-butyl 2-methyl-2-(4-(4-(3-(4-(trifluoromethyl)phenyl)ureido)piperidine-1-carbonyl)phenoxy)propanoate]",,206 to 208 °C,,89%,
"O=C(Nc1cccc(F)c1)NC1CCN(S(=O)(=O)c2cccc(C(F)(F)F)c2)CC1 [Compound 28, 1-(3-Fluoro-phenyl)-3-[1-(3-trifluoromethyl-benzenesulfonyl)-piperidin-4-yl]-urea]",,86 to 88 °C,,94%,
"O=C(Nc1ccc(Cl)cc1)NC1CCN(C(=O)c2ccc(N3CCOCC3)cc2)CC1 [Compound 36, 1-(4-Chlorophenyl)-3-(1-(4-morpholinobenzoyl)piperidin-4-yl)urea]",,303 to 308 °C,,95%,
"O=C(Nc1cccc(F)c1)NC1CCN(S(=O)(=O)c2ccc(Cl)cc2)CC1 [Compound 23, 1-[1-(4-Chloro-benzenesulfonyl)-piperidin-4-yl]-3-(3-fluoro-phenyl)-urea]",,245 to 248 °C,,91%,
"O=C(Nc1ccc(F)cc1)NC1CCN(S(=O)(=O)c2ccc(Cl)cc2)CC1 [Compound 19, 1-[1-(4-Chloro-benzenesulfonyl)-piperidin-4-yl]-3-(4-fluoro-phenyl)-urea]",,160 to 162 °C,,,85%
"CC(=O)N1CCC(NC(=O)Nc2cccc(F)c2)CC1 [Compound 32, 1-(1-Acetyl-piperidin-4-yl)-3-(3-fluoro-phenyl)-urea]",,112 to 114 °C,,,80%
"O=C(Nc1cccc(F)c1)NC1CCN(S(=O)(=O)c2ccccc2)CC1 [Compound 22, 1-(1-Benzenesulfonyl-piperidin-4-yl)-3-(3-fluoro-phenyl)-urea]",,186 to 188 °C,,82%,
"CC(=O)N1CCC(NC(=O)Nc2ccc(F)cc2)CC1 [Compound 21, 1-(1-Acetyl-piperidin-4-yl)-3-(4-fluoro-phenyl)-urea]",,146 to 148 °C,,,74%
"CS(=O)(=O)N1CCC(NC(=O)Nc2cccc(F)c2)CC1 [Compound 31, 1-(3-Fluoro-phenyl)-3-(1-methanesulfonyl-piperidin-4-yl)-urea]",,212 to 214 °C,,,80%
"CC(C)(Oc1ccc(C(=O)N2CCC(NC(=O)Nc3ccc(C(F)(F)F)cc3)CC2)cc1)C(=O)O [Compound 40, 2-Methyl-2-(4-(4-(3-(4-(trifluoromethyl)phenyl)ureido)piperidine-1-carbonyl)phenoxy)propanoic acid]",,197 to 199 °C,,68%,
